Assay results reported in patent publication US10053468B2, “Heterocyclic compound” (TAKEDA PHARMACEUTICAL COMPANY LIMITED, priority 2013, dated 2018).
Read-outs that look alike come from different tables or passages of the source.

Tests used:
[1] = target: T1, RORγt (Homo sapiens, UniProt P51449); test: Cofactor recruitment test (Alpha Screen, biotinylated SRC-1 peptide); assay type: biochemical; conditions: read-out: Signal value inhibitory rate at test compound 1 μM (%)
T1 sequence (P51449 1-497 isoform P51449-2): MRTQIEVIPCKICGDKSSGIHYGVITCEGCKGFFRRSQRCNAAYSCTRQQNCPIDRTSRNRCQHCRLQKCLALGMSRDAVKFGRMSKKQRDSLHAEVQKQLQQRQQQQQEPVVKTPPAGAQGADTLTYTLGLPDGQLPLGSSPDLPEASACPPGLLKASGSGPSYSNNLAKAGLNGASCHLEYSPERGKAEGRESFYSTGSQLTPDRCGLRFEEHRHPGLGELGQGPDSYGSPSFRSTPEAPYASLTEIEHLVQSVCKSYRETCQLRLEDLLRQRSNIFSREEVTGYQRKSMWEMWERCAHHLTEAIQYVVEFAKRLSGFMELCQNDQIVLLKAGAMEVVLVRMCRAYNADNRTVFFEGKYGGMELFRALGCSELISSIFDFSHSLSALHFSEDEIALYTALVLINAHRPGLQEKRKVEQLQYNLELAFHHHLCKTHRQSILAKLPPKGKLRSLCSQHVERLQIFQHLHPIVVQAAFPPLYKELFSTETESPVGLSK
Procedure: Cofactor Recruitment Test
Cofactor recruitment test was performed by Alpha Screen (Histidine Detection Kit, PerkinElmer) method. First, a test compound was diluted with an assay buffer (50 mM Tris-HCl (pH 7.5), 50 mM KCl, 1 mM DTT, 0.1% BSA) and added to a 384 well plate by 5 μL. […] The mixture was stood in a dark place for 1 hr, and the signal value was measured by Envision (PerkinElmer).

[2] = target: T1, RORγt; test: RORγt binding test using fluorescent-labeled cholesterol (TR-FRET); conditions: read-out: Binding inhibitory rate of fluorescent-labeled cholesterol to RORγt at test compound 1 μM (%)
Outline: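 TR-FRET displacement with His-tagged RORγt, BODIPY-cholesterol and Tb-anti-His antibody in Tris-HCl pH 7.5, 100 mM NaCl, 1 mM DTT, 0.1% BSA. Compound, RORγt and labelled cholesterol were incubated 20 min at RT, then antibody was added for another 20 min.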

[3] = target: T1, RORγt; test: Jurkat reporter test (human IL-17 ROR response element luciferase, RORγt vector); assay type: cell-based; conditions: read-out: Luminescence level inhibitory rate at test compound 3 μM (%)
Outline: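 Jurkat cells were electroporated (1350 V, 10 ms, 3 pulses) with reporter constructs, then cultured overnight with compound in RPMI containing 10% lipid-reduced FCS, 10 mM HEPES pH 7.5 and 5 μM lovastatin. Luciferase was quantified by Bright-Glo luminescence after 10 min at room temperature.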

[4] = target: T1, RORγt; test: RORγt binding test using fluorescent-labeled synthetic ligand (TR-FRET); conditions: read-out: Binding inhibitory rate of fluorescent-labeled synthetic ligand to RORγt at test compound 1 μM (%)
Outline: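 His-tagged RORγt (diluted to 240 nM) with compound, then fluorescent synthetic ligand (diluted to 12 μM), 20 min at room temperature, followed by Tb anti-His antibody (diluted to 8 nM), 20 min.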

[5] = test compound 3 μM, Jurkat cells

inhibition at 3 µM [3, 5] | SMILES | inhibition at 1 µM [1] | inhibition at 1 µM [2] | inhibition at 1 µM [4] | inhibition at 3 µM ([3]; Jurkat)
101% | COc1ccc2c(c1)CCN(C(=O)Cc1cccnc1)[C@H]2C(=O)Nc1cc(F)c(C(C)(C)C(=O)N2CCCC2)c(F)c1 [Example 105, (1R)-N-(3,5-difluoro-4-(2-methyl-1-oxo-1-(pyrrolidin-1-yl)propan-2-yl)phenyl)-6-methoxy-2-(pyridin-3-ylacetyl)-1,2,3,4-tetrahydroisoquinoline-1-carboxamide] | 100% | 103% | 101% | –
102% | COc1ccc2c(c1)CCN(C(=O)Cc1nnc(C)o1)[C@H]2C(=O)Nc1cc(F)c(C(C)(C)C(=O)N2CCCC2)c(F)c1 [Example 106, (1R)-N-(3,5-difluoro-4-(2-methyl-1-oxo-1-(pyrrolidin-1-yl)propan-2-yl)phenyl)-6-methoxy-2-((5-methyl-1,3,4-oxadiazol-2-yl)acetyl)-1,2,3,4-tetrahydroisoquinoline-1-carboxamide] | 101% | 102% | 101% | –
– | COCc1ccc2c(c1)CCN(C(=O)c1cc(O)no1)[C@H]2C(=O)Nc1ccc([Si](C)(C)C)c(F)c1 [Example 107, (1R)-N-(3-fluoro-4-(trimethylsilyl)phenyl)-2-((3-hydroxy-1,2-oxazol-5-yl)carbonyl)-6-(methoxymethyl)-1,2,3,4-tetrahydroisoquinoline-1-carboxamide] | 100% | 103% | 102% | 102%
– | COCc1ccc2c(c1)CCN(C(=O)CCCC(=O)O)[C@H]2C(=O)Nc1ccc([Si](C)(C)C)c(F)c1 [Example 110, 5-((1R)-1-((3-fluoro-4-(trimethylsilyl)phenyl)carbamoyl)-6-(methoxymethyl)-3,4-dihydroisoquinolin-2 (1H)-yl)-5-oxopentanoic acid] | 100% | 102% | 102% | 103%
– | CC[Si](C)(C)c1c(F)cc(NC(=O)[C@H]2c3ccc(OC)nc3CCN2C(=O)c2cc(O)no2)cc1F [Example 111, (5R)-N-(4-(ethyl (dimethyl)silyl)-3,5-difluorophenyl)-6-((3-hydroxy-1,2-oxazol-5-yl)carbonyl)-2-methoxy-5,6,7,8-tetrahydro-1,6-naphthyridine-5-carboxamide] | 99% | 103% | 101% | 103%
– | CC[Si](C)(C)c1c(F)cc(NC(=O)[C@H]2c3ccc(OC)nc3CCN2C(=O)CCCC(=O)O)cc1F [Example 114, 5-((5R)-5-((4-(ethyl(dimethyl)silyl)-3,5-difluorophenyl)carbamoyl)-2-methoxy-7,8-dihydro-1,6-naphthyridin-6(5H)-yl)-5-oxopentanoic acid] | 98% | 103% | 102% | 101%
102% | COc1ccc2c(n1)CCN(C(=O)c1cc(O)no1)[C@H]2C(=O)Nc1cc(F)c2c(c1)CCC2(C)C [Example 115, (5R)-N-(7-fluoro-1,1-dimethyl-2,3-dihydro-1H-inden-5-yl)-6-((3-hydroxy-1,2-oxazol-5-yl)carbonyl)-2-methoxy-5,6,7,8-tetrahydro-1,6-naphthyridine-5-carboxamide] | 89% | 103% | 101% | –
101% | COc1ccc2c(n1)CCN(C(=O)Cc1cc(O)no1)[C@H]2C(=O)Nc1cc(F)c2c(c1)CCC2(C)C [Example 117, (5R)-N-(7-fluoro-1,1-dimethyl-2,3-dihydro-1H-inden-5-yl)-6-((3-hydroxy-1,2-oxazol-5-yl)acetyl)-2-methoxy-5,6,7,8-tetrahydro-1,6-naphthyridine-5-carboxamide] | 87% | 102% | 102% | –
– | COCc1ccc2c(c1)CCN(C(=O)Cc1cc(O)no1)[C@H]2C(=O)Nc1cc(F)c([Si](C)(C)C)c(F)c1 [Example 121, (1R)-N-(3,5-difluoro-4-(trimethylsilyl)phenyl)-2-((3-hydroxy-1,2-oxazol-5-yl)acetyl)-6-(methoxymethyl)-1,2,3,4-tetrahydroisoquinoline-1-carboxamide] | 100% | 101% | 101% | 103%
– | CCOc1ccc2c(n1)CCN(C(=O)c1cc(O)no1)[C@H]2C(=O)Nc1cc(F)c([Si](C)(C)C)c(F)c1 [Example 126, (5R)-N-(3,5-difluoro-4-(trimethylsilyl)phenyl)-2-ethoxy-6-((3-hydroxy-1,2-oxazol-5-yl)carbonyl)-5,6,7,8-tetrahydro-1,6-naphthyridine-5-carboxamide] | 100% | 101% | 101% | 102%
– | CCOc1ccc2c(n1)CCN(C(=O)CCCC(=O)O)[C@H]2C(=O)Nc1cc(F)c([Si](C)(C)C)c(F)c1 [Example 129, 5-((5R)-5-((3,5-difluoro-4-(trimethylsilyl)phenyl)carbamoyl)-2-ethoxy-7,8-dihydro-1,6-naphthyridin-6(5H)-yl)-5-oxopentanoic acid] | 99% | 98% | 101% | 102%
– | COCc1ccc2c(c1)CCN(C(=O)CCCC(=O)O)[C@H]2C(=O)Nc1cc(F)c([Si](C)(C)C)c(F)c1 [Example 130, 5-((1R)-1-((3,5-difluoro-4-(trimethylsilyl)phenyl)carbamoyl)-6-(methoxymethyl)-3,4-dihydroisoquinolin-2(1H)-yl)-5-oxopentanoic acid] | 100% | 102% | 102% | 104%
– | COCc1ccc2c(c1)CCN(C(=O)c1cc(O)no1)[C@H]2C(=O)Nc1cc(F)c([Si](C)(C)C)c(F)c1 [Example 131, (1R)-N-(3,5-difluoro-4-(trimethylsilyl)phenyl)-2-((3-hydroxy-1,2-oxazol-5-yl)carbonyl)-6-(methoxymethyl)-1,2,3,4-tetrahydroisoquinoline-1-carboxamide] | 100% | 103% | 101% | 103%
104% | COCc1ccc2c(c1)CCN(C(=O)Cc1cc(O)no1)[C@H]2C(=O)Nc1ccc(C(C)(C)C)c(F)c1 [Example 132, (1R)-N-(4-tert-butyl-3-fluorophenyl)-2-((3-hydroxy-1,2-oxazol-5-yl)acetyl)-6-(methoxymethyl)-1,2,3,4-tetrahydroisoquinoline-1-carboxamide] | 98% | 100% | 102% | –
103% | COCc1ccc2c(c1)CCN(C(=O)c1cc(O)no1)[C@H]2C(=O)Nc1cc(F)c2c(c1)CCC2(C)C [Example 133, (1R)-N-(7-fluoro-1,1-dimethyl-2,3-dihydro-1H-inden-5-yl)-2-((3-hydroxy-1,2-oxazol-5-yl)carbonyl)-6-(methoxymethyl)-1,2,3,4-tetrahydroisoquinoline-1-carboxamide] | 96% | 103% | 101% | –
– | COCc1ccc2c(n1)CCN(C(=O)c1cc(O)no1)[C@H]2C(=O)Nc1cc(F)c([Si](C)(C)C)c(F)c1 [Example 136, (5R)-N-(3,5-difluoro-4-(trimethylsilyl)phenyl)-6-((3-hydroxy-1,2-oxazol-5-yl)carbonyl)-2-(methoxymethyl)-5,6,7,8-tetrahydro-1,6-naphthyridine-5-carboxamide] | 97% | 100% | 102% | 103%
103% | COCc1ccc2c(c1)CCN(C(=O)c1cc(O)no1)[C@H]2C(=O)Nc1cc(F)c(C(C)(C)COC)c(F)c1 [Example 137, (1R)-N-(3,5-difluoro-4-(1-methoxy-2-methylpropan-2-yl)phenyl)-2-((3-hydroxy-1,2-oxazol-5-yl)carbonyl)-6-(methoxymethyl)-1,2,3,4-tetrahydroisoquinoline-1-carboxamide] | 98% | 102% | 102% | –
